Data reported in patent EP2576536B1, “HAEMATOPOIETIC-PROSTAGLANDIN D2 SYNTHASE INHIBITORS” (priority 2010, dated 2011).

Experiments:
[1] = test system: mouse primary bone marrow-derived macrophages (BMM); test: LPS-inducible PGE2, 6-keto PGF1α and TXB2 production from BMM (EIA), specificity; type: cell-based; conditions: 24 h, 0-100 µM
Experimental: The human megakaryocytic cell line MEG-01S was obtained from the American Type Culture Collection. MEG-01S were maintained in the same media as for BMM, supplemented with 1 mM Sodium Pyruvate (Invitrogen).
BMM were seeded overnight at 2 x 10^5 cells/ml in 24 well plates before treatment with compound at either 10 µM or 0.1 - 100 µM for 24 h in the presence or absence of lipopolysaccharide (LPS) from Salmonella Minnesota (Sigma-Aldrich) at a final concentration of 10 ng/ml. MEG-01S were seeded at 2 x 10^5 cells/ml and stimulated with PMA (Phorbol 12-myristate 13-acetate) (Sigma-Aldrich) at a final concentration of 0.1 µM for 16 h.

BMM = BMM cell viability by MTT assay; type: cell-based, mouse; conditions: 10, 30, 100 µM, LPS, 24 h (Figure 1B)
Experimental: (§1) All bone marrow-derived macrophages (BMM) were obtained by culturing bone marrow cells from the femurs of 6 to 8 week old C57BL/6 male mice in RPMI 1640 medium (Invitrogen Life Technologies, Carlsbad, CA, USA) supplemented with 10 % Fetal calf serum (Invitrogen) 20 U/ml penicillin and 20 µg/ml streptomycin (Invitrogen), 2 mM L-glutamine (Glutamax-1, Invitrogen) in the presence of 10^4 U/ml (100 ng/mL) recombinant human CSF-1 (a gift from Chiron, Emeryville, CA) on bacteriological plastic plates for 7 days. The human megakaryocytic cell line MEG-01S was obtained from the American Type Culture Collection. MEG-01S were maintained in the same media as for BMM, supplemented with 1 mM Sodium Pyruvate (Invitrogen).
(§2) Known inhibitors 1 and 2, along with compound 3, were used to treat BMM at three doses (10, 30, 100 µM) in the presence of LPS for 24 h and cell viability was measured by MTT assay. BMM were seeded at 1 x 10^5 cells/well in 96 well plates and treated for 24 h with LPS (10 ng/ml) and compounds at 10, 30 and 100 µM. MEG-01S were PMA differentiated overnight before compounds were added for a further 24 h at 10, 30 and 100 µM. Cell viability was measured by MTT (Sigma-Aldrich) assay as described previously (Irvine, FASEB J, 2006).

[2] = test system: MEG-01S human megakaryocytes; test: A23187-inducible PGD2 production in PMA-differentiated MEG-01S (EIA); type: cell-based; conditions: at 100 µM (Figure 3A)
Experimental: as §1
BMM were seeded overnight at 2 x 10^5 cells/ml in 24 well plates before treatment with compound at either 10 µM or 0.1 - 100 µM for 24 h in the presence or absence of lipopolysaccharide (LPS) from Salmonella Minnesota (Sigma-Aldrich) at a final concentration of 10 ng/ml. […] Supernatants were collected and samples were analysed for PGD2 using Prostaglandin D2 Mox Express EIA kits, PGE2 using Prostaglandin E2 Express EIA kits, the prostacyclin derivative 6-keto PGF1α using the 6-keto Prostaglandin F1α EIA Kit and the Thromboxane A2 derivative TXB2 using the Thromboxane B2 Express EIA kit (Cayman Chemical) according to the manufacturer's instructions. […]

MEG-01S = MEG-01S cell viability by MTT assay; type: cell-based, human; conditions: 24 h treatment, 0-100 µM (Figure 3B)
Experimental: as §1
as §2, with “MEG-01S were PMA differentiated overnight before compounds were added for a further 24 h at 10, 30 and 100 µM.” left out
The effect of the compounds on MEG-01S cell viability was measured by MTT assay after 24 h treatment across the concentration range 0 - 100 µM of compounds (Figure 3B). […]

H-PGDS = biological target: T1, H-PGDS (Homo sapiens, UniProt O60760); test: H-PGDS catalyzed conjugation of GSH and CDNB, enzyme inhibition assay; type: biochemical; conditions: for inhibition at 50 µM / I[50]: percent inhibition at 50 µM, Mean ± Standard Error of triplicate experiments; for inhibition at 50 µM: read-out: I[50]; for IC50: IC50 ± Standard Error of the Mean, triplicate experiments
T1 construct: made in house; host or cells: Escherichia coli BL21 DE3
Experimental: H-PGDS was expressed and purified as described previously (Jowsey, 2001). Briefly, H-PGDS was expressed in Escherichia coli strain BL21 DE3 transformed with the pET17b HPGDS expression construct, grown overnight at 37 °C in 250 ml of Luria-Bertani medium supplemented with 100 µg/ml ampicillin. After 24 h, without induction, bacteria were harvested by centrifugation at 5000 g for 20 min at 4 °C; cell pellets were kept at -70 °C until required. Cells were resuspended in 25 ml of ice-cold phosphate buffered saline (PBS), pH 7.4, containing 1 mM DTT, 0.5 % Triton X-100 and EDTA-free protease inhibitor tablets (F.Hoffmann-La Roche, Dee Why, NSW, Australia), and incubated with rotation for 30 mins at 4 °C. Cells were then lysed by sonication at 90-100 W over 3 x 1 min intervals, while incubated on ice; the lysate clarified by centrifugation at 18000 g for 10 min at 4 °C.
The supernatant was then applied to a GSTPrep FF 16/10 column pre-equilibrated with PBS, pH 7.4, and 1 mM DTT, at 0.4 ml/minute using an AKTA explorer 100 (GE Healthcare, Rydalmere, NSW, Australia), then washed with 5 column volumes of the same buffer at 1 ml/min. Bound H-PGDS was eluted in 5 column volumes of 15 mM reduced glutathione in 50 mM Tris, pH 9.0, at 0.5 ml/min, and dialysed against 100 volumes of 5 mM TrisCl, pH 8.0. The protein was concentrated to 20 mg/ml, as determined by the method of Bradford (Bradford, 1976) using an Amicon Ultra-4 centrifugal filter device (Millipore, North Ryde, NSW, Australia) following manufacturers recommendations. Glycerol was added to a final concentration of 10 % (v/v) prior to storage at -20 °C.
The H-PGDS catalyzed conjugation of GSH and 1-chloro-2,4-dinitrobenzene (CDNB) was used as the biochemical assay for enzyme inhibition. Reactions were performed in 96 well plate format, and product formation was followed at A340 nm over a 10 min internal at 25 °C using a POWERWAVE XS microplate scanning spectrophotometer (Bio-Tek Instruments, Winooski, VT, USA). Reactions were performed in 0.1 M Tris HCl, pH 8.0 containing 2 mM MgCl2, 1 mM CDNB, 2 mM GSH, 2.5 ng/µl purified H-PGDS and 10 % (v/v) ethanol in a 200 µl reaction volume. IC50 values were calculated from rates of conjugation activity determined at eight concentration points bracketing the IC50, where compound solubility allowed, and were corrected for background activity at the same solvent concentrations. All compounds were made up in 100 % DMSO and diluted with 0.1 M Tris HCl, pH 8.0 with 2 mM MgCl2. I50 and IC50 values were determined at a final DMSO composition of no greater than 4 % v/v for all compounds. Non-linear regression analysis and IC50 calculations were performed using GraphPad Prism version 4.0c.
IC50 values were calculated from triplicate experiments, and are presented as IC50 ± Standard Error of the Mean.

T1 sequence (O60760 whole entry): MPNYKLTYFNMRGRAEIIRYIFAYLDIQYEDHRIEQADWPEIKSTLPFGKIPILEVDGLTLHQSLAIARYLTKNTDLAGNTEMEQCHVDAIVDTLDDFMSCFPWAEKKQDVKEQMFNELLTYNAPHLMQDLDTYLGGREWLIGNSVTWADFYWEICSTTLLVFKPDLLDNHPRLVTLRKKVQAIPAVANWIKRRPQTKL

Row | SMILES | inhibition at 50 µM (H-PGDS) | IC50 (H-PGDS) | also measured
1 | c1ccc(C(OC2CCN(CCCc3nn[nH]n3)CC2)c2ccccc2)cc1 [Compound 1, reference compound] |  |  | differential effect in inhibition of PGD2 versus PGE2, 6-keto PGF1α or TXB2 (selectivity) [1]: no differential effect; BMM cell viability (BMM): modest but significant effects; A23187-inducible PGD2 production [2]: very modest activity; MEG-01S cell viability (MEG-01S): little effect
2 | O=C(NC(c1ccccc1)c1ccccc1)c1ccc(-c2cccs2)nc1 [Compound 4, N-benzhydryl-6-(thiophen-2-yl)nicotinamide] | 28.5% |  | 
3 | O=C(NCc1ccccc1)c1ccc(-c2cccs2)nc1 [Compound 5, N-benzyl-6-(thiophen-2-yl)nicotinamide] | 99.5 ± 0.8% | 597 ± 1200 nM | 
4 | O=C(c1ccc(-c2cccs2)nc1)N1CCc2ccccc2C1 [Compound 6, (3,4-dihydroisoquinolin-2(1H)-yl)(6-(thiophen-2-yl)pyridin-3-yl)methanone] | 72.3 ± 1.5% |  | 
5 | O=C(c1ccc(-c2cccs2)nc1)N1CCC2(CCc3ccccc32)CC1 [Compound 7, (2,3-dihydrospiro[indene-1,4'-piperidin]-1'-yl)(6-(thiophen-2-yl)pyridin-3-yl)methanone] | 91 ± 0.1% | 1970 ± 1200 nM | 
6 | CC(=O)C1(c2ccccc2)CCN(C(=O)c2ccc(-c3cccs3)nc2)CC1 [Compound 8, 1-(4-phenyl-1-(6-(thiophen-2-yl)nicotinoyl)piperidin-4-yl)ethanone] | 58.7 ± 0.8% |  | 
7 | O=C(O)c1ccc(CNC(=O)c2ccc(-c3cccs3)nc2)cc1 [Compound 9, 4-((6-(thiophen-2-yl)nicotinamido)methyl)benzoic acid] | 98.3 ± 1.1% | 660 ± 1100 nM | 
8 | CS(=O)(=O)N1CC2(CCN(C(=O)c3ccc(-c4cccs4)nc3)CC2)c2ccccc21 [Compound 10, (1-(methylsulfonyl)spiro[indoline-3,4'-piperidin]-1'-yl)(6-(thiophen-2-yl)pyridin-3-yl)methanone] | 90.4 ± 0.5% | 1230 ± 1100 nM | 
9 | O=C(c1ccc(-c2cccs2)nc1)N1CCC(n2c(=O)[nH]c3ccccc32)CC1 [Compound 11, 1-(1-(6-(thiophen-2-yl)nicotinoyl)piperidin-4-yl)-1H-benzo[d]imidazol-2(3H)-one] | 90.4 ± 0.7% | 1220 ± 1400 nM | 
10 | C[C@H](NC(=O)c1ccc(-c2cccs2)nc1)c1ccc2ccccc2c1 [Compound 12, (S)-N-(1-(naphthalen-2-yl)ethyl)-6-(thiophen-2-yl)nicotinamide] | 99.8 ± 0.3% | 86 nM | 
11 | O=C(c1ccc(-c2cccs2)nc1)N1CCC(N2C(=O)OCc3ccccc32)CC1 [Compound 13, 1-(1-(6-(thiophen-2-yl)nicotinoyl)piperidin-4-yl)-1H-benzo[d][1,3]oxazin-2(4H)-one] |  | 3400 ± 1400 nM | I[50] (H-PGDS): 87.9 ± 1.1%
12 | NC(=O)[C@H](Cc1ccccc1)NC(=O)c1ccc(-c2ccc(C=O)s2)nc1 [Compound 14] | 83.4 ± 1.5% | 1700 ± 1800 nM | 
13 | NC(=O)[C@H](Cc1ccccc1)NC(=O)c1ccc(-c2ccc(C(=O)O)s2)nc1 [Compound 15] |  |  | I[50] (H-PGDS): 19.4 ± 1.4%
14 | NC(=O)[C@H](Cc1ccccc1)NC(=O)c1ccc(-c2ccc(Cl)s2)nc1 [Compound 16] | 89.4 ± 4.7% | 1400 ± 1300 nM | 
15 | Cc1ccc(-c2ccc(C(=O)N[C@@H](Cc3ccccc3)C(N)=O)cn2)s1 [Compound 17] | 95 ± 1.1% | 2000 ± 1100 nM | 
16 | CC(=O)c1ccc(-c2ccc(C(=O)N[C@@H](Cc3ccccc3)C(N)=O)cn2)s1 [Compound 18] | 65.5 ± 7.7% | 5100 ± 1100 nM | 
17 | NC(=O)[C@H](Cc1ccccc1)NC(=O)c1ccc(-c2sccc2Cl)nc1 [Compound 19] | 94.8 ± 2.4% | 3200 ± 1600 nM | 
18 | N#Cc1ccc(-c2ccc(C(=O)N[C@@H](Cc3ccccc3)C(N)=O)cn2)s1 [Compound 20] |  |  | I[50] (H-PGDS): 67.9 ± 1.6%
19 | Cc1csc(-c2ccc(C(=O)N[C@@H](Cc3ccccc3)C(N)=O)cn2)c1 [Compound 21] | 97.4 ± 0.8% | 380 ± 1100 nM | 
20 | Cc1cc(-c2ccc(C(=O)N[C@@H](Cc3ccccc3)C(N)=O)cn2)sc1C#N [Compound 22] |  |  | I[50] (H-PGDS): 34.6 ± 2.1%
21 | Cc1ccsc1-c1ccc(C(=O)N[C@@H](Cc2ccccc2)C(N)=O)cn1 [Compound 23] | 91.6 ± 0.8% | 1870 ± 1100 nM | 
22 | CC(NC(=O)C(Cc1ccccc1)NC(=O)c1ccc(-c2cccs2)nc1)C(N)=O (stereo not drawn) [Compound 24] | 94.6 ± 0.3% | 860 ± 1200 nM | 
23 | Cc1csc(-c2ccc(C(=O)N[C@@H](C)c3ccc4ccccc4c3)cn2)c1 [Compound 25] | 96.9 ± 1% | 180 nM | 
